Measured values taken from publication PMC8234359, “Pharmacokinetics in Zebrafish Embryos (ZFE) Following Immersion and Intrayolk Administration: A Fluorescence-Based Analysis” (Pharmaceuticals, 2021).

Columns and labels:
[1] = Immersion of two-cell stage zebrafish embryos (10 µM), spatiotemporal fluorescence imaging and non-compartmental AUC; type: in vivo, zebrafish (Danio rerio); conditions: immersion 10 µM; for AUC-RoB IMM (AUC0.25–72h): rest of body (non-yolk); for AUC-RoB IMM (AUC0.25–72h) / AUC-WB IMM (AUC0.25–72h) / AUC-Yolk IMM (AUC0.25–72h): 0.25 to 72 h; for AUC-WB IMM (AUC0.25–72h): whole body; for intrabody accumulation on longer incubations: 24–72 h
Method: Immersion treatment: zebrafish embryos at the two-cell stage were immersed in Danieau’s medium containing the compound. A compound concentration of 10 µM and DMSO concentration of 0.1% (v/v) in a volume of 5 mL was used per well (6-well-plates). At 72 h, the zebrafish medium containing the compound was removed, and the animals rinsed 3 × with Danieau’s medium. Next, the embryos were kept for another 48 h in Danieau’s medium supplemented with DMSO (0.1%, v/v) in the absence of compound. In the case of control experiments, the embryos were exposed to Danieau’s medium supplemented with DMSO (0.1%, v/v).
Animals were kept in dark conditions in an incubator at 28.5 °C for defined time-periods (0.25, 1, 3, 6, 24, 48, 72, 96, and 120 h) before image analysis in a dark room. To acquire images, a Leica MZ10F fluorescent stereomicroscope (Leica Microsystems Inc., Buffalo Grove, IL, USA) with a 4.0× planapochromatic objective (10447243) was used, equipped with a Digital Color Camera Leica DFC310 FX (Software LAS 4.13, Leica Microsystems Inc., Buffalo Grove, IL, USA). Filter sets were GFP 10446222 in the case of compound FAMA, dSRED 10447079 in the cases of S-CY3A, CY3A and TAMRA, and CY5 10446366 in the cases of S-CY5.5A and S-CY5A. Previous to fluorescence imaging, the embryos were dechorionated (up to 72 hpf) and immobilized by hypothermia, rinsed three times with Danieau’s medium, and positioned latero-lateral (right lateral recumbency) on a single cavity glass slide and covered by a drop of agarose (0.1%). Then, using MetaMorph (Microscopy Automation and Image Analysis Software V.7.8.00, Molecular Devices, LLC., San Jose, CA, USA) and by manual delineation of the whole-body (WB) (up to 120 h) and yolk sac contours (up to 72 h) of the zebrafish embryos the fluorescence in the selected area was quantified as integrated fluorescence intensity (RFU). The RFU values of the non-yolk compartment (i.e., RoB: rest of body) was assessed by subtracting the yolk results from the corresponding integrated fluorescence intensities found in the WB.
(§1) In order to determine the degree of tissue exposure following administration of the fluorescent compounds, we calculated the AUC as the pharmacokinetic parameter of the non-compartmental analysis. The area under a plot of the fluorescence intensity (RFUT) versus time is referred to as the area under the (zero moment) curve AUC. RFUT represents the relative amount of compound present in the ZFE by measuring the integrated fluorescence intensity of delineated contours in fluorescence images (Figure 2). The AUC was then determined by summing the incremental area of subsequent trapezoids. […] In some cases, observations were censored and excluded from the analysis, due to possible fluorescence quenching effect of compounds that remains at the site of the intrayolk microinjection.

[2] = Intrayolk (IY) microinjection of two-cell stage zebrafish embryos (2 mg/kg), spatiotemporal fluorescence imaging and non-compartmental AUC; type: in vivo, zebrafish (Danio rerio); conditions: for localization of the dye after IY microinjection / accumulation in the gastrointestinal system: IY microinjection 2 mg/kg; for localization of the dye after IY microinjection: first hours post injection; for RD (IY), Relative Distribution: ratio of AUCRoB to AUCWB after microinjection into the yolk (2 mg/kg), 0.25–72 h; for accumulation in the gastrointestinal system: after 96 hpf
Description: Intrayolk microinjection (IY): zebrafish embryos at the two-cell stage were positioned in a Petri dish at room temperature. […] Needles were filled with compounds dissolved in the vehicle (DMSO/saline (1:1)), placed under the microscope, and using forceps, the tip was cut off in a manner to allow for a consistent volume to be injected. Afterwards, the embryos were transferred to 6-well plates. Control embryos were exposed to vehicle only. […] Previous to fluorescence imaging, the embryos were dechorionated (up to 72 hpf) and immobilized by hypothermia, rinsed three times with Danieau's medium, and positioned latero-lateral (right lateral recumbency) on a single cavity glass slide and covered by a drop of agarose (0.1%). Then, using MetaMorph (Microscopy Automation and Image Analysis Software V.7.8.00, Molecular Devices, LLC., San Jose, CA, USA) and by manual delineation of the whole-body (WB) (up to 120 h) and yolk sac contours (up to 72 h) of the zebrafish embryos the fluorescence in the selected area was quantified as integrated fluorescence intensity (RFU). The RFU values of the non-yolk compartment (i.e., RoB: rest of body) was assessed by subtracting the yolk results from the corresponding integrated fluorescence intensities found in the WB. In order to determine the degree of tissue exposure following administration of the fluorescent compounds, we calculated the AUC as the pharmacokinetic parameter of the non-compartmental analysis. The area under a plot of the fluorescence intensity (RFUT) versus time is referred to as the area under the (zero moment) curve AUC. RFUT represents the relative amount of compound present in the ZFE by measuring the integrated fluorescence intensity of delineated contours in fluorescence images (Figure 2). The AUC was then determined by summing the incremental area of subsequent trapezoids.

[3] = Relative Exposure (RE10/2/72h): ratio of AUC immersion to AUC IY microinjection; type: in vivo, zebrafish (Danio rerio)
Method: We then assessed by non-compartmental analysis the area from 0.25 to 72 h post exposure under the concentration–time curve (AUC0.25–72h) (Table 1) that represents well the relative tissue exposure to fluorescent compound across time. These absolute fluorescence intensities however cannot be comscriptpared across compounds as they depend critically on the respective quantum yields of the compounds and the device settings. To be able to compare the PK behavior of the compounds following different administration routes, we calculated the fluorescence-independent pharmacokinetic parameter Relative Exposure (RE10/2/72h), i.e., the ratio of AUC0.25–72h immersion (10 µM) to AUC0.25–72h IY microinjection (2 mg/kg). Separate RE values were calculated based on the whole body (WB), rest-of-body (RoB) and yolk fluorescence measurements (Table 2).
as §1
We further calculated the Relative Exposure (RE10/2) by comparing the […] after IY microinjection (2 mg/kg), as defined in Equation (2): (2) RE10/2/h=AUCImm/AUCInj.

[4] = parameters: method as in PMID 34108572; conditions: experimentally determined before; cited from earlier work
[5] = rest of body (non-yolk), intrayolk microinjection 2 mg/kg, 0.25 to 72 h
[6] = whole body, intrayolk microinjection 2 mg/kg, 0.25 to 72 h
[7] = yolk, intrayolk microinjection 2 mg/kg, 0.25 to 72 h

AUC-RoB IMM (AUC0.25–72h) [1] [RFU × 10^7]	AUC-WB IMM (AUC0.25–72h) [1] [RFU × 10^7]	AUC-Yolk IMM (AUC0.25–72h) [1] [RFU × 10^7]	RD (IY), Relative Distribution [2]	AUC-RoB IY (AUC0.25–72h) [2, 5] [RFU × 10^7]	AUC-WB IY (AUC0.25–72h) [2, 6] [RFU × 10^7]	AUC-Yolk IY (AUC0.25–72h) [2, 7] [RFU × 10^7]	RE-WB (Relative Exposure RE-WB10/2/72h) ([3]; zebrafish, in vivo)	intrabody accumulation after one hour of immersion followed by dechorionation ([1]; 1 h, dechorionated and rinsed)	accumulation in the gastrointestinal system [2]	AUC-RoB IY (AUC0.25–72h) ([2]; zebrafish, in vivo, 2 mg/kg) [RFU × 10^7]	AUC-WB IY (AUC0.25–72h) ([2]; zebrafish, in vivo, 2 mg/kg) [RFU × 10^7]	AUC-Yolk IY (AUC0.25–72h) ([2]; zebrafish, in vivo, 2 mg/kg) [RFU × 10^7]	Compound	localization of the dye after IY microinjection [2]	Log D [4]	intrabody accumulation on longer incubations [1]	RE-RoB (Relative Exposure RE-RoB10/2/72h) ([3]; rest of body, AUC0.25–72h immersion (10 µM) / AUC0.25–72h IY microinjection (2 mg/kg))	RE-WB (Relative Exposure RE-WB10/2/72h) ([3]; whole body, AUC0.25–72h immersion (10 µM) / AUC0.25–72h IY microinjection (2 mg/kg))	RE-Yolk (Relative Exposure RE-Yolk10/2/72h) ([3]; yolk, AUC0.25–72h immersion (10 µM) / AUC0.25–72h IY microinjection (2 mg/kg))
0	0	0	0.19	1.02	5.45	4.42	0						C#CCNC(=O)CCCCC[N+]1=C(C=CC=CC=C2N(C)c3ccc4c(S(=O)(=O)[O-])cc(S(=O)(=O)[O-])cc4c3C2(C)C)C(C)(C)c2c1ccc1c(S(=O)(=O)[O-])cc(S(=O)(=O)[O-])cc21.[K+].[K+].[K+] [S-CY5.5A, S-Cyanine 5.5]	stayed localized to the microinjection site	−1.68				
0	0	0	0.18	1.67	9.49	7.82	0						S-Cyanine 5A [S-CY5A]	stayed localized to the microinjection site	−0.72				
6.41	20.9	14.6	0.17	3.21	18.9	15.7	1.11	fast intrabody accumulation	accumulation				C#CCNC(=O)CCCCCN1C(=CC=CC2=[N+](C)c3ccccc3C2(C)C)C(C)(C)c2ccccc21.[Cl-] [CY3A, Cyanine 3]		1.73	further intrabody accumulation			
2.67	4.56	1.89	0.24	7.65	31.4	23.8	0.15		accumulation				C#CCNC(=O)CCCCCN1C(=CC=CC2=[N+](C)c3ccc(S(=O)(=O)[O-])cc3C2(C)C)C(C)(C)c2cc(S(=O)(=O)[O-])ccc21.[K+] [S-CY3A, S-Cyanine 3]	stayed localized to the microinjection site	−1.96				
0.84	1.17	0.36	0.32	6.93		14.9	0.05		accumulation				C#CCNC(=O)c1ccc2c(c1)C(=O)OC21c2ccc(O)cc2Oc2cc(O)ccc21 [FAMA, Fam A, 5-Isomer]		−0.14				
							0.10			1.48	5.76	4.29	Rhodamine 6g 6-Isomer [Compound R6GA]		1.07				

Compound	AUC-RoB IMM (AUC0.25–72h) [1] [RFU × 10^7]	AUC-WB IMM (AUC0.25–72h) [1] [RFU × 10^7]	AUC-Yolk IMM (AUC0.25–72h) [1] [RFU × 10^7]	RD (IY), Relative Distribution [2]	AUC-RoB IY (AUC0.25–72h) [2, 5] [RFU × 10^7]	AUC-WB IY (AUC0.25–72h) [2, 6] [RFU × 10^7]	AUC-Yolk IY (AUC0.25–72h) [2, 7] [RFU × 10^7]	RE-WB (Relative Exposure RE-WB10/2/72h) ([3]; zebrafish, in vivo)	intrabody accumulation after one hour of immersion followed by dechorionation ([1]; 1 h, dechorionated and rinsed)	accumulation in the gastrointestinal system [2]	AUC-RoB IY (AUC0.25–72h) ([2]; zebrafish, in vivo, 2 mg/kg) [RFU × 10^7]	AUC-WB IY (AUC0.25–72h) ([2]; zebrafish, in vivo, 2 mg/kg) [RFU × 10^7]	AUC-Yolk IY (AUC0.25–72h) ([2]; zebrafish, in vivo, 2 mg/kg) [RFU × 10^7]	localization of the dye after IY microinjection [2]	Log D [4]	intrabody accumulation on longer incubations [1]	RE-RoB (Relative Exposure RE-RoB10/2/72h) ([3]; rest of body, AUC0.25–72h immersion (10 µM) / AUC0.25–72h IY microinjection (2 mg/kg))	RE-WB (Relative Exposure RE-WB10/2/72h) ([3]; whole body, AUC0.25–72h immersion (10 µM) / AUC0.25–72h IY microinjection (2 mg/kg))	RE-Yolk (Relative Exposure RE-Yolk10/2/72h) ([3]; yolk, AUC0.25–72h immersion (10 µM) / AUC0.25–72h IY microinjection (2 mg/kg))
C#CCNC(=O)c1ccc(-c2c3ccc(=[N+](C)C)cc-3oc3cc(N(C)C)ccc23)c(C(=O)[O-])c1 (single isomer, unassigned) [TAMRA]	2.78	7.76	4.98	0.28	11.2	40.4	29.1			accumulation					0.46	further intrabody accumulation	0.25	0.19	0.17
